# Counter-ions that a name gives are not always drawn.
# Legend:
# Type in all cases: binding
# [1] = biological target: T1, JAK3 (Homo sapiens, UniProt P52333); assay: Kinobeads assay with immunodetection, JAK3; conditions: for IC50: Kinobeads assay, mixed Molt4/Ramos lysate, read-out: Inhibition values (IC50) JAK3
# T1 construct: endogenous in cells; host or cells: Molt4 (ATCC CRL-1582) and Ramos (ATCC CRL-1596) cells; mixed lysate 1:2
# T1 sequence (P52333 1-1124): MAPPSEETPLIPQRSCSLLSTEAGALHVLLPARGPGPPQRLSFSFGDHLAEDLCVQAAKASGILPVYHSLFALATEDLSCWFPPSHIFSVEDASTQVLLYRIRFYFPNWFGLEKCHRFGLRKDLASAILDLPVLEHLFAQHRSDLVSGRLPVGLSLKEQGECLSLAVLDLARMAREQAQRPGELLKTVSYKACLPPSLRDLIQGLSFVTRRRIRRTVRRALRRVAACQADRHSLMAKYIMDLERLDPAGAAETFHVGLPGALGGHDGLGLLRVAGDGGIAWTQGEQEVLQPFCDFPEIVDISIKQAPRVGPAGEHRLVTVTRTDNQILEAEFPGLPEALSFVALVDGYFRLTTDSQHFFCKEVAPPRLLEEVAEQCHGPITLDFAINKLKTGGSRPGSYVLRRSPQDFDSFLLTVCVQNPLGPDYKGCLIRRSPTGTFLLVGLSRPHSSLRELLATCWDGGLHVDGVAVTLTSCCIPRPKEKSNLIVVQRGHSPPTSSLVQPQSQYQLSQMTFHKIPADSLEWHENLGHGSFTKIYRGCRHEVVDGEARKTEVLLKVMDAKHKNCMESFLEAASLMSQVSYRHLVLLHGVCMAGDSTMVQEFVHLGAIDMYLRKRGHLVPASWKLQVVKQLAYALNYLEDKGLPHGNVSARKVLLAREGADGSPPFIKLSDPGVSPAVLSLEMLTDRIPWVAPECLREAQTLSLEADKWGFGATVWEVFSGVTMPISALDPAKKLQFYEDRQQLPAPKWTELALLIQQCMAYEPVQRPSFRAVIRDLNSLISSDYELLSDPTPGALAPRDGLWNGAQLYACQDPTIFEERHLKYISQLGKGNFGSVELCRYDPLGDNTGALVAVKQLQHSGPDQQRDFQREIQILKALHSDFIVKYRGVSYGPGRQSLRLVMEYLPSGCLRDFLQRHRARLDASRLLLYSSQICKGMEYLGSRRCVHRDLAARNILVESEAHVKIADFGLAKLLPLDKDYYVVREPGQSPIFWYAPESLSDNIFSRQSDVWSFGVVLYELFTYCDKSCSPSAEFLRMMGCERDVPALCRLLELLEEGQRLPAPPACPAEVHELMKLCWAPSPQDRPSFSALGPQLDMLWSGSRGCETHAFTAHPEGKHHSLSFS
# Summary of the method: (§1)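 Inhibition of kinase capture on aminopyrido-pyrimidine beads was measured after a 3 h cold incubation in mixed human leukemia and lymphoma cell lysate. Bound kinase was quantified by immunodetection and IC50s were calculated.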
# [2] = biological target: T2, JAK2 (Homo sapiens, UniProt O60674); assay: Kinobeads assay with immunodetection, JAK2; conditions: mixed Molt4/Ramos lysate, read-out: Inhibition values (IC50) JAK2
# T2 construct: endogenous in cells; host or cells: Molt4 (ATCC CRL-1582) and Ramos (ATCC CRL-1596) cells; mixed lysate 1:2
# T2 sequence (O60674 whole entry): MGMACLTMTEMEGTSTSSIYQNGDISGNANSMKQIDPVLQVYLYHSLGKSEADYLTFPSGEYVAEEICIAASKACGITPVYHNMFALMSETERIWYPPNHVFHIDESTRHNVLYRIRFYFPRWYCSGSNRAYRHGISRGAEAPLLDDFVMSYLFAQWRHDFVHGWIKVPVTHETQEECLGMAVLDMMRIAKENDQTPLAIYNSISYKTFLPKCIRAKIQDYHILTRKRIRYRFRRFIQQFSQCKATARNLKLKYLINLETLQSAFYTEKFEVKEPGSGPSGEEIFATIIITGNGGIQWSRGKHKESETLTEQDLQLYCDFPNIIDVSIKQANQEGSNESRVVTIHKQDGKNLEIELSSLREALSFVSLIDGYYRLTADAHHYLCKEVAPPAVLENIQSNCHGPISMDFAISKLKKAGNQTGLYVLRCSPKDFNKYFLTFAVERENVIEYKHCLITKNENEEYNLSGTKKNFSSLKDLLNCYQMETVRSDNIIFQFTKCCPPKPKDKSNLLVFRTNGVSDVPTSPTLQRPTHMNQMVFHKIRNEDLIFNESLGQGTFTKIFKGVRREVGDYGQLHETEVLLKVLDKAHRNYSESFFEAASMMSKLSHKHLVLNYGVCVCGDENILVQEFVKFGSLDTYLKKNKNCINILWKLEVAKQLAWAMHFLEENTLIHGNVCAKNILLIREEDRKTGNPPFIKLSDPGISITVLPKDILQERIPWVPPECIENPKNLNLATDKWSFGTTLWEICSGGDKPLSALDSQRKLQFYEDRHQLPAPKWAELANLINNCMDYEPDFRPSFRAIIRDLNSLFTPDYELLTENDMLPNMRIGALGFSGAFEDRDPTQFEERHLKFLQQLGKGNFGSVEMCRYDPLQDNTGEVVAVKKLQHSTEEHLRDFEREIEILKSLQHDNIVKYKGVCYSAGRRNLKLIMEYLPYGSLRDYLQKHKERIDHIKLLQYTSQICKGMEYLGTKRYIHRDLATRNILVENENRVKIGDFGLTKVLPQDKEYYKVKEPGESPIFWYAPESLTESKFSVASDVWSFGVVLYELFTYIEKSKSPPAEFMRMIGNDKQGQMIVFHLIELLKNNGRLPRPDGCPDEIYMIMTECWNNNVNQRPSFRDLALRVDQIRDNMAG
# Summary of the method: as §1
# [3] = biological target: T3, TYK2 (Homo sapiens, UniProt P29597); assay: Kinobeads assay with immunodetection, TYK2; conditions: for IC50: Kinobeads assay, mixed Molt4/Ramos lysate, read-out: Inhibition values (IC50) Tyk2
# T3 construct: endogenous in cells; host or cells: Molt4 (ATCC CRL-1582) and Ramos (ATCC CRL-1596) cells; mixed lysate 1:2
# T3 sequence (P29597 whole entry): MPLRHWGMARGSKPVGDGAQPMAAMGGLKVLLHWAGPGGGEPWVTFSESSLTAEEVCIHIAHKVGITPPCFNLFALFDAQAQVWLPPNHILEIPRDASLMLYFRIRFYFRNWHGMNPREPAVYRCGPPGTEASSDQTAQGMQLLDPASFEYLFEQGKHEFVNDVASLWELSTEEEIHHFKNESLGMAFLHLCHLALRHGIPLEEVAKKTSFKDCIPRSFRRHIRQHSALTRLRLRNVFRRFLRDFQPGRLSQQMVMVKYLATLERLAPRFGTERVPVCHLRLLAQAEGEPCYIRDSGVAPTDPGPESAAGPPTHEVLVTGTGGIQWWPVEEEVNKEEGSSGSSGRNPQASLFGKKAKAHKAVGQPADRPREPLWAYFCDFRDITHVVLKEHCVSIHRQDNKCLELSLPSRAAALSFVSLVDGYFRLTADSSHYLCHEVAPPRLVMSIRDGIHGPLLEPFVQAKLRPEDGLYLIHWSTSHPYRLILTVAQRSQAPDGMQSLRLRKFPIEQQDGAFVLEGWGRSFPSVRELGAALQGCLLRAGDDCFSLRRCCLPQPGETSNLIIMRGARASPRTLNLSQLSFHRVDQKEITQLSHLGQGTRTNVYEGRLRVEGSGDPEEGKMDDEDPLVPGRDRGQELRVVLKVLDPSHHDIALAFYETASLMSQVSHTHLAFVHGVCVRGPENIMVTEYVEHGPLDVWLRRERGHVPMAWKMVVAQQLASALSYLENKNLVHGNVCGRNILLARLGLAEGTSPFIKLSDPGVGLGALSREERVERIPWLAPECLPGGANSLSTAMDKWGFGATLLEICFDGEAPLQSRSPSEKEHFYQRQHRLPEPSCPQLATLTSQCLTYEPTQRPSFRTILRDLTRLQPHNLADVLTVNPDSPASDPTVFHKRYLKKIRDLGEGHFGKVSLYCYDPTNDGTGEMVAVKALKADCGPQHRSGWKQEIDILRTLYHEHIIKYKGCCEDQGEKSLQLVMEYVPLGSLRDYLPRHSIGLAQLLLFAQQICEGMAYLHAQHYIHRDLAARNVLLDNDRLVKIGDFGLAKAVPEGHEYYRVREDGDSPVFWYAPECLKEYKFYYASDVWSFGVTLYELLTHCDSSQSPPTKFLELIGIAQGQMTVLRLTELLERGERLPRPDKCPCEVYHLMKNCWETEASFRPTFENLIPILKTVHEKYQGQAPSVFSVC
# Summary of the method: as §1
# [4] = biological target: T4, JAK1 (Homo sapiens, UniProt P23458); assay: Kinobeads assay with immunodetection, JAK1; conditions: for IC50: Kinobeads assay, mixed Molt4/Ramos lysate, read-out: Inhibition values (IC50) JAK1
# T4 construct: endogenous in cells; host or cells: Molt4 (ATCC CRL-1582) and Ramos (ATCC CRL-1596) cells; mixed lysate 1:2
# T4 sequence (P23458 whole entry): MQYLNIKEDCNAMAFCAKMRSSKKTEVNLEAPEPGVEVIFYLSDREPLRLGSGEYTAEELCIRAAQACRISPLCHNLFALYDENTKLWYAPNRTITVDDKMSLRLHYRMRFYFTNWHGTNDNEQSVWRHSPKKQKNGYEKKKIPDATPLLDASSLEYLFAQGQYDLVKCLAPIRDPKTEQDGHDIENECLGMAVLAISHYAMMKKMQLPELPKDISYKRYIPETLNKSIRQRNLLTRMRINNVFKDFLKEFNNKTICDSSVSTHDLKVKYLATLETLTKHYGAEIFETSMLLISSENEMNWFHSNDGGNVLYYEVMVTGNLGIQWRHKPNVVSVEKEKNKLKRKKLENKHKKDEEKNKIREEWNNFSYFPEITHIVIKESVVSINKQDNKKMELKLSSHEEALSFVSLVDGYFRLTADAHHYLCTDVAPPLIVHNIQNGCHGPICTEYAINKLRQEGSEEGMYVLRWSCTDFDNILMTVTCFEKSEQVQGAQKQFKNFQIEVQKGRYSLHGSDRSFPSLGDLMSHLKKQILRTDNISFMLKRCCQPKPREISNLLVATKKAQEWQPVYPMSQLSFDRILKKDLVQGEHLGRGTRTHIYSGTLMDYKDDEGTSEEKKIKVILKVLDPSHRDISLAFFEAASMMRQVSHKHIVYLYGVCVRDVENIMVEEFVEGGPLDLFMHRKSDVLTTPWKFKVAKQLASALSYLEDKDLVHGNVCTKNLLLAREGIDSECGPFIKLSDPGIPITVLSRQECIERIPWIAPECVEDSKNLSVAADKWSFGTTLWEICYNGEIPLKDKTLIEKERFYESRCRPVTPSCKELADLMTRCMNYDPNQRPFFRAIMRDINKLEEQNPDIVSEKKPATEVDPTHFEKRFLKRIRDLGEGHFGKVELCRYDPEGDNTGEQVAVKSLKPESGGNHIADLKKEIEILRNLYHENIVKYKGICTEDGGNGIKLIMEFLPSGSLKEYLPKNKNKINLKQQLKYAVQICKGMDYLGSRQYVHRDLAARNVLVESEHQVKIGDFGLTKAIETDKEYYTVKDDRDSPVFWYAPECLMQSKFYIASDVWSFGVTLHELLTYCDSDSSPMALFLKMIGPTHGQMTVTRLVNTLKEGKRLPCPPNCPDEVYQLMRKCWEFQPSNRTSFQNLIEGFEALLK
# Summary of the method: as §1
IC50 [1] [µM],IC50 [2] [µM],IC50 [3] [µM],"Selectivity ratio over JAK2, Tyk2 [3]",IC50 [4] [µM],"Selectivity ratio over JAK2, JAK1 [4]","Selectivity ratio over JAK2, JAK3 [1]",SMILES
< 0.1,0.1 to 1,< 0.1,Tyk2 = 68,< 0.1,–,–,"Cn1cc(Nc2ncc(Cl)c(NC[C@H]3CCCN3C3CCS(=O)(=O)C3)n2)cn1 (stereo partly drawn) [Example 115, 3-((R)-2-(((5-chloro-2-((1-methyl-1H-pyrazol-4-yl)amino)pyrimidin-4-yl)amino)methyl)pyrrolidin-1-yl)tetrahydrothiophene 1,1-dioxide]"
0.1 to 1,0.1 to 1,< 0.1,–,< 0.1,JAK1 = 27,–,"CS(=O)(=O)N1CC[C@H](CNc2nc(Nc3cnn(CCO)c3)ncc2Cl)C1 [Example 85, (R)-2-(4-((5-chloro-4-(((1-(methylsulfonyl)pyrrolidin-3-yl)methyl)amino)pyrimidin-2-yl)amino)-1H-pyrazol-1-yl)ethanol]"
< 0.1,0.1 to 1,< 0.1,–,< 0.1,–,JAK3 = 33,"Cn1cc(Nc2ncc(Cl)c(NC[C@H]3CCCN(C(=O)CC#N)C3)n2)cn1 [Example 137, (R)-3-(3-(((5-chloro-2-((1-methyl-1H-pyrazol-4-yl)amino)pyrimidin-4-yl)amino)methyl)piperidin-1-yl)-3-oxopropanenitrile]"
1 to 10,> 10,1 to 10,–,1 to 10,–,–,"CNC(=O)Cn1cc(Nc2ncc(Cl)c(NC[C@@H]3CCCN3)n2)cn1 [Example 65, (S)-2-(4-(5-chloro-4-(pyrrolidin-2-ylmethylamino)pyrimidin-2-ylamino)-1H-pyrazol-1-yl)-N-methylacetamide]"
0.1 to 1,1 to 10,< 0.1,–,< 0.1,JAK1 = 96,–,"Cc1cnc(Nc2cnn(C)c2)nc1NC[C@@H]1C[C@H](F)CN1C(=O)CCC#N [Example 104, 4-((2S,4S)-4-fluoro-2-(((5-methyl-2-((1-methyl-1H-pyrazol-4-yl)amino)pyrimidin-4-yl)amino)methyl)pyrrolidin-1-yl)-4-oxobutanenitrile]"
1 to 10,> 10,1 to 10,–,1 to 10,–,–,"Cc1cnc(Nc2cnn(C)c2)nc1NC[C@@H]1CCCN1 [Example 73, (S)-5-methyl-N^2-(1-methyl-1H-pyrazol-4-yl)-N^4-(pyrrolidin-2-ylmethyl)pyrimidine-2,4-diamine Hydrochloride]"
0.1 to 1,0.1 to 1,< 0.1,–,< 0.1,JAK1 = 143,–,"Cc1cnc(Nc2cnn(CC(F)F)c2)nc1NC[C@H]1CCN(C(=O)CCC#N)C1 [Example 130, (R)-4-(3-(((2-((1-(2,2-difluoroethyl)-1H-pyrazol-4-yl)amino)-5-methylpyrimidin-4-yl)amino)methyl)pyrrolidin-1-yl)-4-oxobutanenitrile]"
1 to 10,> 10,1 to 10,–,1 to 10,–,–,"CC(=O)N1CC(CNc2nc(Nc3cnn(CCO)c3)ncc2Cl)C1 [Example 17, 1-(3-(((5-chloro-2-((1-(2-hydroxyethyl)-1H-pyrazol-4-yl)amino)pyrimidin-4-yl)amino)methyl)azetidin-1-yl)ethanone]"
0.1 to 1,1 to 10,0.1 to 1,–,0.1 to 1,JAK1 = 6,–,"Cn1cc(Nc2ncc(Cl)c(NCC3CCOCC3)n2)cn1 [Example 46, 5-chloro-N^2-(1-methyl-1H-pyrazol-4-yl)-N^4-((tetrahydro-2H-pyran-4-yl)methyl)pyrimidine-2,4-diamine]"
< 0.1,0.1 to 1,< 0.1,Tyk2 = 14,< 0.1,–,–,"CCS(=O)(=O)N1CCC[C@@H]1CNc1nc(Nc2cnn(C)c2)ncc1Cl [Example 51, (R)-5-chloro-N^4-((1-(ethylsulfonyl)pyrrolidin-2-yl)methyl)-N^2-(1-methyl-1H-pyrazol-4-yl)pyrimidine-2,4-diamine]"
0.1 to 1,> 10,1 to 10,–,0.1 to 1,–,–,"C=CC(=O)N1CC[C@@H](CNc2nc(Nc3cnn(CCO)c3)ncc2Cl)C1 [Example 29, (S)-1-(3-(((5-chloro-2-((1-(2-hydroxyethyl)-1H-pyrazol-4-yl)amino)pyrimidin-4-yl)amino)methyl)pyrrolidin-1-yl)prop-2-en-1-one]"
< 0.1,0.1 to 1,< 0.1,–,< 0.1,JAK1 = 28,–,"Cc1cnc(Nc2cnn(C)c2)nc1NC[C@@H]1CCCN1S(C)(=O)=O [Example 77, (S)-5-methyl-N^2-(1-methyl-1H-pyrazol-4-yl)-N^4-((1-(methylsulfonyl)pyrrolidin-2-yl)methyl)pyrimidine-2,4-diamine]"
< 0.1,0.1 to 1,< 0.1,–,< 0.1,–,JAK3 = 40,"Cn1cc(Nc2ncc(Cl)c(NC[C@@H]3CCCN(C(=O)CC#N)C3)n2)cn1 [Example 135, (S)-3-(3-(((5-chloro-2-((1-methyl-1H-pyrazol-4-yl)amino)pyrimidin-4-yl)amino)methyl)piperidin-1-yl)-3-oxopropanenitrile]"
< 0.1,0.1 to 1,< 0.1,–,< 0.1,JAK1 = 6,–,"CC(=O)N1CCC[C@@H]1CNc1nc(Nc2cnn(CCO)c2)ncc1Cl [Example 2, (R)-1-(2-(((5-chloro-2-((1-(2-hydroxyethyl)-1H-pyrazol-4-yl)amino)pyrimidin-4-yl)amino)methyl)pyrrolidin-1-yl)ethanone]"
0.1 to 1,1 to 10,< 0.1,–,< 0.1,JAK1 = 78,–,"CC(=O)N1CC[C@H](CNc2nc(Nc3cnn(CCO)c3)ncc2Cl)C1 [Example 21, (R)-1-(3-(((5-chloro-2-((1-(2-hydroxyethyl)-1H-pyrazol-4-yl)amino)pyrimidin-4-yl)amino)methyl)pyrrolidin-1-yl)ethanone]"
1 to 10,1 to 10,1 to 10,–,0.1 to 1,JAK1 = 46,–,"Cn1cc(Nc2ncc(Cl)c(NC[C@H]3CCN(CCO)C3)n2)cn1 [Example 56, (R)-2-(3-((5-chloro-2-(1-methyl-1H-pyrazol-4-ylamino)pyrimidin-4-ylamino)methyl)pyrrolidin-1-yl)ethanol]"
> 10,> 10,> 10,–,1 to 10,–,–,"Cn1cc(Nc2ncc(F)c(NC[C@H]3CCCN3)n2)cn1 [Example 70, (R)-5-fluoro-N^2-(1-methyl-1H-pyrazol-4-yl)-N^4-(pyrrolidin-2-ylmethyl)pyrimidine-2,4-diamine Hydrochloride]"
0.1 to 1,1 to 10,0.1 to 1,–,< 0.1,JAK1 = 77,–,"Cc1cnc(Nc2cnn(CC(F)F)c2)nc1NC[C@H]1CCN(CCC#N)C1 [Example 128, (R)-3-(3-(((2-((1-(2,2-difluoroethyl)-1H-pyrazol-4-yl)amino)-5-methylpyrimidin-4-yl)amino)methyl)pyrrolidin-1-yl)propanenitrile]"
